Laboratory results: patent EP4624465A1, “COMPOUND SERVING AS DDR1 KINASE INHIBITOR, AND MEDICINE” (Nippon Shinyaku Co., Ltd., priority 2022, dated 2024)
Counter-ions that a name gives are not always drawn.

Assays:
DDR1 kinase [1] = target: T1, DDR1 kinase (Homo sapiens, UniProt Q08345); experiment: Evaluation of DDR1 kinase inhibition in DDR1-expressing U2OS cells (type I collagen stimulation, PathHunter detection); assay type: cell-based; parameters: host or cells: U2OS; details: type I collagen 50 µg/mL stimulation, duplicate, read-out: DDR-1 IC50
Protocol: The solution was further diluted in an E-MEM medium (Fujifilm Wako Pure Chemicals, 051-07615) containing 10% fetal bovine serum (FBS, Gibco, 10270106) to 60000, 6000, 600, 60, 6, and 0.6 nM to prepare test substance solutions. 2. […] On the following day, after the plate was left at room temperature for 1 hour, a detection solution was added to the wells at […] according to the handling instructions for the PathHunter® Detection Kit (DiscoverX, 93-0001), and then incubated at room temperature for 2 hours. After the incubation, a luminescence intensity was measured by Envision (Perkin-Elmer). Tests were performed in duplicate. 3.
Target sequence in this assay (Q08345 19-913): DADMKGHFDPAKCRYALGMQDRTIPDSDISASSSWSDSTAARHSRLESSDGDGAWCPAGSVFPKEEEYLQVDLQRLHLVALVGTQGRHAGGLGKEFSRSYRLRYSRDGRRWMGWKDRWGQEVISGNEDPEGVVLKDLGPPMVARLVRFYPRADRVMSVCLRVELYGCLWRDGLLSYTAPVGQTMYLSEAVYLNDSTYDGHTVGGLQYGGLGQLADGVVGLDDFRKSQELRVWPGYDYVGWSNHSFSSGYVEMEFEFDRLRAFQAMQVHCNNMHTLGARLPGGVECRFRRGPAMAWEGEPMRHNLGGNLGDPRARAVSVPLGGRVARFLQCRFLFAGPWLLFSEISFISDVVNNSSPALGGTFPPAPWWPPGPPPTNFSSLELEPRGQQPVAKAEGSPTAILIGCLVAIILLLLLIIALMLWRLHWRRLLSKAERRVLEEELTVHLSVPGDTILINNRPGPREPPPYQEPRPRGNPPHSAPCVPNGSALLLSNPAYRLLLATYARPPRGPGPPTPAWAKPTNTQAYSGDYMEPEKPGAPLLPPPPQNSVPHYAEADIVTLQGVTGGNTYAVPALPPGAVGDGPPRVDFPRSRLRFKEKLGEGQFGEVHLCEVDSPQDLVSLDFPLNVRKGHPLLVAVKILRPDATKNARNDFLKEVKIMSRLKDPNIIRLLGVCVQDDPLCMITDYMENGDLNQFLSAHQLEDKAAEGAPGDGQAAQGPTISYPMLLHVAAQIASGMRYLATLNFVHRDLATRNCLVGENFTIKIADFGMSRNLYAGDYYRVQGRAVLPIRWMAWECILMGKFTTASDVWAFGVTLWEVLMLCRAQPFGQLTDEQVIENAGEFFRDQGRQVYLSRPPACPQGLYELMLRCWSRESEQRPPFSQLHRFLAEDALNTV

DDR1 kinase [2] = target: T1, DDR1 kinase; experiment: Evaluation of DDR1 kinase inhibition (LANCE Ultra TR-FRET kinase assay); assay type: biochemical; parameters: purchased Carna Biosciences 08-113; details: DDR1 protein 0.5 nM, LANCE Ultra ULight-poly GAT substrate, 2 hours at room temperature, duplicate; read-out: DDR-1 IC50
Target sequence in this assay (Q08345 19-876 isoform Q08345-2 limits assumed): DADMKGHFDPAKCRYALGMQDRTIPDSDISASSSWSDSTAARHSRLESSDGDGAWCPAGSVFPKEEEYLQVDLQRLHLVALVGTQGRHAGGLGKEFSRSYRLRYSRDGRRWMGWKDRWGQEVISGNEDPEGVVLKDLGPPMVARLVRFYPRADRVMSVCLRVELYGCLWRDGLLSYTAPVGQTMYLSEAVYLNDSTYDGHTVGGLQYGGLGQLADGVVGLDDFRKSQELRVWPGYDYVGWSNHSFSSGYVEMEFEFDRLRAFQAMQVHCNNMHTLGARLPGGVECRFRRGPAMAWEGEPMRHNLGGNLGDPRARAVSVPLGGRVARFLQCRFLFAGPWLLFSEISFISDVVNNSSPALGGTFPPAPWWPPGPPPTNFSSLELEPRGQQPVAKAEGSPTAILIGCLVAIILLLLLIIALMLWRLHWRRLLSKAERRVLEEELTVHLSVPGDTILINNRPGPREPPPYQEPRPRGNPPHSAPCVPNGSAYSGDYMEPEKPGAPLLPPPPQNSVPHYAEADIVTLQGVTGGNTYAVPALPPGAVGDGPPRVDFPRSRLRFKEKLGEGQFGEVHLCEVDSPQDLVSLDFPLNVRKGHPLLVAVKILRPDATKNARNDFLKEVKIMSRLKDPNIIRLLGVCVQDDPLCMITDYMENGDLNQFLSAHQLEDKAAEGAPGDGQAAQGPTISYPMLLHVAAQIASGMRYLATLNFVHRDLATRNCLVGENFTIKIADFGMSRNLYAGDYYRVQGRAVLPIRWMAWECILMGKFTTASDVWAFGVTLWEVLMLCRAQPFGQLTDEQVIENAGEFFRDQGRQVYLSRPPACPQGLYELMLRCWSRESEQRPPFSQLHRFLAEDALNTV

Cc1c(C(=O)N2CC(c3nn(CC(=O)N4CCO[C@H](C(F)(F)F)C4)c4cc(F)cc(F)c34)C2)ccnc1N [Compound E-89, 2-{3-[1-(2-amino-3-methylpyridine-4-carbonyl)azetidin-3-yl]-4,6-difluoro-1H-indazol-1-yl]-1-[(2S)-2-(trifluoromethyl)morpholin-4-yllethan-1-one hydrochloride]
IC50 (DDR1 kinase [1]): 400 nM
IC50 (DDR1 kinase [2]): 45 nM

Nc1cc(C(=O)N2CC(c3nn(CC(=O)N4CCC[C@H]4C(F)(F)F)c4ccc(Cl)cc34)C2)c(F)cn1 [Compound E-206, 2-{3-[1-(2-amino-5-fluoropyridine-4-carbonyl)azetidin-3-yl}-5-chloro-1H-indazol-1-yl}-1-[(2S)-2-(trifluoromethyl)pyrrolidin-1-yl]ethan-1-one]
IC50 (DDR1 kinase [1]): 6 nM
IC50 (DDR1 kinase [2]): 1.6 nM

Nc1cc(C(=O)N2CC(c3nn(CC(=O)NC4CCCC4(F)F)c4ccccc34)C2)ccn1 (stereo not shown) [Compound E-225, 2-{3-[1-(2-aminopyridine-4-carbonyl)azetidin-3-yl}-1H-indazol-1-yl}-N-(2,2-difluorocyclopentyl)acetamide]
IC50 (DDR1 kinase [1]): 450 nM
IC50 (DDR1 kinase [2]): 17 nM

CN(CC(F)(F)F)C(=O)Cn1nc(C2CN(C(=O)c3ccnc(N)n3)C2)c2cc(Cl)ccc21 [Compound E-4, 2-{3-[1-(2-aminopyrimidine-4-carbonyl)azetidin-3-yl]-5-chloro-1H-indazol-1-yl}-N-methyl-N-(2,2,2-trifluoroethyl)acetamide]
IC50 (DDR1 kinase [1]): 55 nM
IC50 (DDR1 kinase [2]): 2 nM

CCNc1cc(C(=O)N2CC(c3nn(CC(=O)NCC(F)(F)F)c4cccc(Cl)c34)C2)ccn1 [Compound E-64, 2-(4-chloro-3-(1-[2-(ethylamino)pyridine-4-carbonyl]azetidin-3-yl}-1H-indazol-1-yl)-N-(2,2,2-trifluoroethyl)acetamide hydrochloride]
IC50 (DDR1 kinase [1]): 180 nM
IC50 (DDR1 kinase [2]): 62 nM

Nc1cc(C(=O)N2CC(c3nn(CC(=O)N(CC(F)(F)F)C4CC4)c4ccccc34)C2)c(F)cn1 [Compound E-251, 2-{3-[1-(2-amino-5-fluoropyridine-4-carbonyl)azetidin-3-yl]-1H-indazol-1-yl}-N-cyclopropyl-N-(2,2,2-trifluoroethyl)acetamide]
IC50 (DDR1 kinase [1]): 19 nM
IC50 (DDR1 kinase [2]): 2.5 nM

Nc1cc(C(=O)N2CC(c3nn(Cc4cn(CC5CC5)nn4)c4cccc(F)c34)C2)ccn1 [Compound E-37, 4-[3-(1-{[1-(cyclopropylmethyl)-1H-1,2,3-triazol-4-yl]methyl}-4-fluoro-1H-indazol-3-yl)azetidine-1-carbonyl]pyridin-2-amine hydrochloride]
IC50 (DDR1 kinase [1]): 2600 nM
IC50 (DDR1 kinase [2]): 50 nM

CN(CC(F)(F)F)C(=O)Cn1nc(C2CN(C(=O)c3nc(N)ncc3F)C2)c2cc(Cl)ccc21 [Compound E-21, 2-{3-[1-(2-amino-5-fluoropyrimidine-4-carbonyl)azetidin-3-yl]-5-chloro-1H-indazol-1-yl}-N-methyl-N-(2,2,2-trifluoroethyl)acetamide]
IC50 (DDR1 kinase [1]): 140 nM
IC50 (DDR1 kinase [2]): 1.5 nM

Cc1c(C(=O)N2CC(c3nn(CC(=O)N4CCC[C@H]4C(F)(F)F)c4cc(F)cc(F)c34)C2)ccnc1N [Compound E-77, 2-{3-[1-(2-amino-3-methylpyridine-4-carbonyl)azetidin-3-yl]-4,6-difluoro-1H-indazol-1-yl}-1-{(2S)-2-(trifluoromethyl)pyrrolidin-1-yl]ethan-1-one hydrochloride]
IC50 (DDR1 kinase [1]): 320 nM
IC50 (DDR1 kinase [2]): 3.5 nM

Nc1cc(C(=O)N2CC=C(c3cn(CC(=O)N4CCC[C@H]4C(F)(F)F)c4cccc(F)c34)CC2)ccn1 [Compound E-124]
IC50 (DDR1 kinase [1]): 140 nM
IC50 (DDR1 kinase [2]): 2.2 nM

CC(C)[C@@H]1COCCN1C(=O)Cn1nc(C2CN(C(=O)c3ccnc(N)c3)C2)c2c(F)cc(F)cc21 [Compound E-83, 2-{3-[1-(2-aminopyridine-4-carbonyl)azetidin-3-yl]-4,6-difluoro-1H-indazol-1-yl]-1-[(3R)-3-(propan-2-yl)morpholin-4-yl]ethan-1-one]
IC50 (DDR1 kinase [1]): 74 nM
IC50 (DDR1 kinase [2]): 0.3 nM

Nc1ncc(C(=O)N2CC(c3nn(CC(=O)N4CCC[C@H]4C(F)(F)F)c4cc(F)cc(F)c34)C2)o1 [Compound E-105, 2-{3-[1-(2-amino-1,3-oxazole-5-carbonyl)azetidin-3-yl]-4,6-difluoro-1H-indazol-1-yl}-1-[(28)-2-(trifluoromethyl)pyrrolidin-1-yl]ethan-1-one]
IC50 (DDR1 kinase [1]): 370 nM
IC50 (DDR1 kinase [2]): 79 nM

Nc1cc(C(=O)N2CC(c3nn(CC(=O)N4CCC(F)(F)CC4)c4ccccc34)C2)c(F)cn1 [Compound E-257, 2-{3-[1-(2-amino-5-fluoropyridine-4-carbonyl)azetidin-3-yl]-1H-indazol-1-yl}-1-(4,4-difluoropiperidin-1-yl)ethan-1-one]
IC50 (DDR1 kinase [1]): 42 nM
IC50 (DDR1 kinase [2]): 13 nM

Nc1cc(C(=O)N2CC(c3nn(CC(=O)N4CCO[C@@H](C(F)(F)F)C4)c4cc(F)cc(F)c34)C2)c(F)cn1 [Compound E-42, 2-{3-[1-(2-amino-5-fluoropyridine-4-carbonyl)azetidin-3-yl]-4,6-difluoro-1H-indazol-1-yl)-1-[(2R)-2-(trifluoromethyl)morpholin-4-yl]ethan-1-one]
IC50 (DDR1 kinase [1]): 150 nM
IC50 (DDR1 kinase [2]): 3.2 nM

CN(CC(F)(F)F)C(=O)Cn1nc(C2CN(C(=O)c3nc(N)ncc3F)C2)c2ccccc21 [Compound E-276, 2-{3-[1-(2-amino-5-fluoropyrimidine-4-carbonyl)azetidin-3-yl)-1H-indazol-1-yl}-N-methyl-N-(2,2,2-trifluoroethyl)acetamide]
IC50 (DDR1 kinase [1]): 430 nM
IC50 (DDR1 kinase [2]): 19 nM

Nc1cc(C(=O)N2CC(c3nn(Cc4nc(C(F)(F)F)no4)c4ccccc34)C2)ccn1 [Compound E-218]
IC50 (DDR1 kinase [1]): 74 nM
IC50 (DDR1 kinase [2]): 13 nM

C[C@@H](N(C)C(=O)Cn1nc(C2CN(C(=O)c3cc(N)ncc3F)C2)c2ccccc21)C(F)(F)F [Compound E-262, 2-{3-[1-(2-amino-5-fluoropyridine-4-carbonyl)azetidin-3-yl]-1H-indazol-1-yl}-N-methyl-N-[(2R)-1,1,1-trifluoropropan-2-yl]acetamide]
IC50 (DDR1 kinase [1]): 20 nM
IC50 (DDR1 kinase [2]): 9.3 nM

O=C(Cn1nc(C2CN(C(=O)c3ccnc(NC4CC4)c3)C2)c2c(F)cccc21)NCC(F)(F)F [Compound E-65, 2-(3-{1-[2-(cyclopropylamino)pyridine-4-carbonyl]azetidin-3-yl}-4-fluoro-1H-indazol-1-yl)-N-(2,2,2-trifluoroethyl)acetamide hydrochloride]
IC50 (DDR1 kinase [1]): 41 nM
IC50 (DDR1 kinase [2]): 1.9 nM

Nc1cc(C(=O)N2CC(c3nn(Cc4ccc(C(F)(F)F)cc4)c4cccc(F)c34)C2)ccn1 [Compound E-112, 4-[3-(4-fluoro-1-{[4-(trifluoromethyl)phenyllmethyl}-1H-indazol-3-yl)azetidine-1-carbonyl]pyridin-2-amine hydrochloride]
IC50 (DDR1 kinase [1]): 170 nM
IC50 (DDR1 kinase [2]): 3.7 nM

C[C@H]1CN(C(=O)Cn2nc(C3CN(C(=O)c4ccnc(N)c4)C3)c3c(F)cc(F)cc32)CCO1 [Compound E-79, 2-{3-[1-(2-aminopyridine-4-carbonyl)azetidin-3-yl]-4,6-difluoro-1H-indazol-1-yl}-1-[(2S)-2-methylmorpholin-4-yl]ethan-1-one hydrochloride]
IC50 (DDR1 kinase [1]): 3400 nM
IC50 (DDR1 kinase [2]): 35 nM

C[C@@H]1COCCN1C(=O)Cn1nc(C2CN(C(=O)c3ccnc(N)c3)C2)c2c(F)cc(F)cc21 [Compound E-80, 2-{3-[1-(2-aminopyridine-4-carbonyl)azetidin-3-yl]-4,6-difluoro-1H-indazol-1-yl}-1-[(3R)-3-methylmorpholin-4-yl]ethan-1-one hydrochloride]
IC50 (DDR1 kinase [1]): 4200 nM
IC50 (DDR1 kinase [2]): 36 nM

Nc1cc(C(=O)N2CC(c3nn(CC(=O)N4CCO[C@@H](C(F)(F)F)C4)c4cc(F)cc(F)c34)C2)ccn1 [Compound E-73, 2-(3-[1-(2-aminopyridine-4-carbonyl)azetidin-3-yl]-4,6-difluoro-1H-indazol-1-yl}-1-l(2R)-2-(trifluoromethyl)morpholin-4-yl]ethan-1-one hydrochloride]
IC50 (DDR1 kinase [1]): 13 nM
IC50 (DDR1 kinase [2]): 5.6 nM

CCN(CC(F)(F)F)C(=O)Cn1nc(C2CN(C(=O)c3cc(N)ncc3F)C2)c2ccccc21 [Compound E-249, 2-{3-[1-(2-amino-5-fluoropyridine-4-carbonyl)azetidin-3-yl]-1H-indazol-1-yl}-N-ethyl-N-(2,2,2-trifluoroethyl)acetamide]
IC50 (DDR1 kinase [2]): 3.5 nM

Cc1nc(N)sc1C(=O)N1CC(c2nn(CC(=O)N3CCO[C@@H](C(F)(F)F)C3)c3cc(F)cc(F)c23)C1 [Compound E-173, 2-(3-[1-(2-amino-4-methyl-1,3-thiazole-5-carbonyl)azetidin-3-yl]-4,6-difluoro-1H-indazol-1-yl}-1-[(2R)-2-(trifluoromethyl)morpholin-4-yl]ethan-1-one]
IC50 (DDR1 kinase [2]): 70 nM

COc1ccc2c(c1)c(C1CN(C(=O)c3cc(N)ncc3F)C1)nn2CC(=O)N1CCC[C@H]1C(F)(F)F [Compound E-291, 2-(3-(1-(2-amino-5-fluoropyridine-4-carbonyl)azetidin-3-yl]-5-methoxy-1H-indazol-1-yl}·1-[(2S)-2-(trifluoromethyl)pyrrolidin-1-yl]ethan-1-one]
IC50 (DDR1 kinase [2]): 2.6 nM

Cc1nc(N)sc1C(=O)N1CC(c2nn(CC(=O)N3CCC[C@H]3C(F)(F)F)c3cccnc23)C1 [Compound E-122]
IC50 (DDR1 kinase [2]): 140 nM

CC(C)(C)NC(=O)Cn1nc(C2CN(C(=O)c3ccnc(N)c3)C2)c2ccccc21 [Compound E-198, 2-{3-[1-(2-aminopyridine-4-carbonyl)azetidin-3-yl]-1H-indazol-1-yl}-N-tert-butylacetamide]
IC50 (DDR1 kinase [2]): 31 nM
